Reference: ChEMBL document CHEMBL1201862, “PubChem BioAssay data set” (2004)
Values belong to the compound of their own block, whether it stands above or below them. Active and inactive are the calls of the source.

How the values were obtained:
[1] = target: Peroxisome proliferator-activated receptor gamma/Nuclear receptor coactivator 2 (Homo sapiens, UniProt P37231); assay: (§1) TR-FRET dose response biochemical High Throughput Screening assay for agonists of the steroid receptor coactivator 2 (SRC-2) recruitment by the peroxisome proliferator-activated receptor gamma (PPAR gamma): non-selective agonists. [Related pubchem assays: 1297, 1032 ]; format: functional
[2] = target: Peroxisome proliferator-activated receptor gamma/Nuclear receptor coactivator 1 (Homo sapiens, UniProt P37231); assay: as §1, with “1 (SRC-1)” for “2 (SRC-2)”, “assays (depositor defined):AID1300, AID1808, AID504735, AID631]” for “assays: 1297, 1032 ]”; format: protein assay
[3] = target: Peroxisome proliferator-activated receptor gamma/Nuclear receptor coactivator 3 (Homo sapiens, UniProt P37231); assay: as §1, with “3 (SRC-3)” for “2 (SRC-2)”, “1301 (Confirmation screen.), 1048 (Primary screen.)]” for “1297, 1032 ]”; format: functional
SUMO-activating enzyme = SUMO-activating enzyme (Homo sapiens, UniProt Q9UBT2); assay: blockers of UBC9-mediated SUMO conjugation – biochemical, AlphaScreen, SUMOylation inhibitor project, confirmation (AID 2018); format: functional
Coagulation factor XII = target: T1, Coagulation factor XII (Homo sapiens, UniProt P00748); format: functional;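 further: activated factor XIIa alpha cleaving a fluorogenic AMC peptide substrate; inhibitor potency from loss of enzyme activity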
T1 sequence (P00748 whole entry): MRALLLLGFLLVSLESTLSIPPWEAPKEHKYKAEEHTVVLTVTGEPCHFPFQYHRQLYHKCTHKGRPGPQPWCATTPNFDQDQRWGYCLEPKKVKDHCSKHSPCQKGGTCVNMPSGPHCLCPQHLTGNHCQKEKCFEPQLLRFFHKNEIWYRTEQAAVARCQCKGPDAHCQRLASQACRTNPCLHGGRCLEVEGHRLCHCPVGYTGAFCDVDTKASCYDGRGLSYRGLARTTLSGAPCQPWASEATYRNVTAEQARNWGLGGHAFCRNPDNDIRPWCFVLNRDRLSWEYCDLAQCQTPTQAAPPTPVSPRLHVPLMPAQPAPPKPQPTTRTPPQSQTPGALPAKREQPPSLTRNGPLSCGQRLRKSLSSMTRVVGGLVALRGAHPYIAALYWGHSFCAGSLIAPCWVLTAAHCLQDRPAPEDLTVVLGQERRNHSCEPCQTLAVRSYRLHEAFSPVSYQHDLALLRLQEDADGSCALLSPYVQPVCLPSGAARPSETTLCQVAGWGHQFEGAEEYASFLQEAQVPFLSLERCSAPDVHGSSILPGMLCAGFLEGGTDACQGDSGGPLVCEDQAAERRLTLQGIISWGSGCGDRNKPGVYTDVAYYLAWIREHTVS

[4] = target: Induced myeloid leukemia cell differentiation protein Mcl-1 (Homo sapiens, UniProt Q07820); format: functional
[5] = target: Eukaryotic translation initiation factor 4E (Mus musculus, UniProt P63073); assay: blockers of eIF4G binding by eIF4E – biochemical, TR-FRET, dose response (AID 855); format: functional;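 further: potency for disrupting eIF4E binding to eIF4GI seen as loss of FRET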
[6] = target: DNA dC->dU-editing enzyme APOBEC-3G (Homo sapiens, UniProt Q9HC16); format: functional;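 further: Dose-response counterscreen measuring inhibition of APOBEC3G DNA deaminase activity, run while confirming APOBEC3A inhibitors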
[7] = target: T2, Corticotropin-releasing factor receptor 2/Corticotropin-releasing factor-binding protein (Homo sapiens, UniProt P24387+Q13324); assay: activators of CRF receptor 2 with binding protein – uHTS hits, confirmation (AID 602473); format: functional; conditions: read-out: EC50_Mean
T2 sequence (Q13324 whole entry): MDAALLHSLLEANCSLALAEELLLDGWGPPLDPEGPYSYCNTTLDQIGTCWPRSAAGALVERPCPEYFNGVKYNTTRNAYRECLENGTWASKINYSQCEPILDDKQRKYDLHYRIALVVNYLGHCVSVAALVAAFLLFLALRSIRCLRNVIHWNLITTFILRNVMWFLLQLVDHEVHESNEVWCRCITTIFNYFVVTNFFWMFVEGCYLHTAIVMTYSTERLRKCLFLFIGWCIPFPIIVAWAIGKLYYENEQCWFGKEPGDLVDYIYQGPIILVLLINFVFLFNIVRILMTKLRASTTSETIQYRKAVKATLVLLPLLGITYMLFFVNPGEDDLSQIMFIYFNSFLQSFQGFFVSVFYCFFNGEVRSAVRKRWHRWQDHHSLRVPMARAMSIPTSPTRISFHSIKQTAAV
T2 sequence (P24387 whole entry): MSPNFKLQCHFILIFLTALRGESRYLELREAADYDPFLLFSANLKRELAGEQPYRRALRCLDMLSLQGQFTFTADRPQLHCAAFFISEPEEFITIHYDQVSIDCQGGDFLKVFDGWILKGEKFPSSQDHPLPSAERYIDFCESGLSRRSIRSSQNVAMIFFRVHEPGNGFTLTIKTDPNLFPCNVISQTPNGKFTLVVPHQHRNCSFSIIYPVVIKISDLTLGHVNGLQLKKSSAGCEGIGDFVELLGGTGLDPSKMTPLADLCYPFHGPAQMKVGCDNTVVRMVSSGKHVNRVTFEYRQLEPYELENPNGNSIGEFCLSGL

[8] = target: DNA dC->dU-editing enzyme APOBEC-3A (Homo sapiens, UniProt P31941); assay: Dose Response confirmation of small molecule APOBEC3A DNA Deaminase Inhibitors via a fluorescence-based single-stranded DNA deaminase assay. [Related pubchem assays (depositor defined):AID493011, AID493024]; format: functional
Bcl-2-like protein 10 = target: T3, Bcl-2-like protein 10 (Homo sapiens, UniProt Q9HD36); assay: Bcl-B/TR3 peptide binding disruption – biochemical, fluorescence polarization, FITC-TR3 peptide, selectivity assay for Bfl-1 inhibitor project, primary screen (AID 748);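 further: fluorescence polarization from a fluorescein-labelled TR3 peptide binding purified Bcl-B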
T3 sequence (Q9HD36 whole entry): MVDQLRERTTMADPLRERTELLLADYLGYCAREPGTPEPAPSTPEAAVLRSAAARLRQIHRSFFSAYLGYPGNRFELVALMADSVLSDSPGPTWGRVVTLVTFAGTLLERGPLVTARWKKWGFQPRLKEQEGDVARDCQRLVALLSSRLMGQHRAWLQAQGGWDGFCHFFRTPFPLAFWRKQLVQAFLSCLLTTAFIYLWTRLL

Estrogen receptor = target: T4, Estrogen receptor (Homo sapiens, UniProt P03372);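 further: potency for inhibiting coactivator peptide recruitment to the receptor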
T4 sequence (P03372 whole entry): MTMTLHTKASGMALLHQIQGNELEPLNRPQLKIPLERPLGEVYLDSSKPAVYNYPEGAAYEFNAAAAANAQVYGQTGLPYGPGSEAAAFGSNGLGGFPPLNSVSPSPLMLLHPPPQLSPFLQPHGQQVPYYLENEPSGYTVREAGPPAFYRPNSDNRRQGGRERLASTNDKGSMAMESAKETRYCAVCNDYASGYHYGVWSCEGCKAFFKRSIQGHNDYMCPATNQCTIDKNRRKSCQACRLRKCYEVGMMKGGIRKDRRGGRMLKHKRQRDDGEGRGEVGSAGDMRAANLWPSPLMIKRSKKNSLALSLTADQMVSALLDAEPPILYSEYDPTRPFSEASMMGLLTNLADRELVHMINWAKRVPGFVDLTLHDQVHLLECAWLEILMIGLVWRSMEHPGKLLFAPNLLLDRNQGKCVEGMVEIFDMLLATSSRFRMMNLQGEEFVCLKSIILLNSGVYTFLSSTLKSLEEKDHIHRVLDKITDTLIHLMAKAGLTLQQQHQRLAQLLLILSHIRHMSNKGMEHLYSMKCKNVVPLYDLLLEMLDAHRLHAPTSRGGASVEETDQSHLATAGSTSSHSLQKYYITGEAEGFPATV

Chain of Peroxisome proliferator-activated receptor gamma/Nuclear receptor coactivator 2 (P37231 whole entry): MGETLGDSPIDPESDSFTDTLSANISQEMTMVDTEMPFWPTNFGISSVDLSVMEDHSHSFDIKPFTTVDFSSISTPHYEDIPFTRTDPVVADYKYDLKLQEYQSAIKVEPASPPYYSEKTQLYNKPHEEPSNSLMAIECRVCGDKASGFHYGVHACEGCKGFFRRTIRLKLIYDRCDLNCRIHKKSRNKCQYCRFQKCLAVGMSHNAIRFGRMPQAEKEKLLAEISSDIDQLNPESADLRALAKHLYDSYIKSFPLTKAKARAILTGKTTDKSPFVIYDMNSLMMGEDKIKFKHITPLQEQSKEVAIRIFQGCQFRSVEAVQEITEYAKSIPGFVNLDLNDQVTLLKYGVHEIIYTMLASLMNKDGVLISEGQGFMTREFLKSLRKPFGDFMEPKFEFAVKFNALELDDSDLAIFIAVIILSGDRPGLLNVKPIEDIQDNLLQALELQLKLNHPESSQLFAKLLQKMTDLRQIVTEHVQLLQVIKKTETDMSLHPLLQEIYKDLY
Chain of Peroxisome proliferator-activated receptor gamma/Nuclear receptor coactivator 2 (Q15596 whole entry, further chain): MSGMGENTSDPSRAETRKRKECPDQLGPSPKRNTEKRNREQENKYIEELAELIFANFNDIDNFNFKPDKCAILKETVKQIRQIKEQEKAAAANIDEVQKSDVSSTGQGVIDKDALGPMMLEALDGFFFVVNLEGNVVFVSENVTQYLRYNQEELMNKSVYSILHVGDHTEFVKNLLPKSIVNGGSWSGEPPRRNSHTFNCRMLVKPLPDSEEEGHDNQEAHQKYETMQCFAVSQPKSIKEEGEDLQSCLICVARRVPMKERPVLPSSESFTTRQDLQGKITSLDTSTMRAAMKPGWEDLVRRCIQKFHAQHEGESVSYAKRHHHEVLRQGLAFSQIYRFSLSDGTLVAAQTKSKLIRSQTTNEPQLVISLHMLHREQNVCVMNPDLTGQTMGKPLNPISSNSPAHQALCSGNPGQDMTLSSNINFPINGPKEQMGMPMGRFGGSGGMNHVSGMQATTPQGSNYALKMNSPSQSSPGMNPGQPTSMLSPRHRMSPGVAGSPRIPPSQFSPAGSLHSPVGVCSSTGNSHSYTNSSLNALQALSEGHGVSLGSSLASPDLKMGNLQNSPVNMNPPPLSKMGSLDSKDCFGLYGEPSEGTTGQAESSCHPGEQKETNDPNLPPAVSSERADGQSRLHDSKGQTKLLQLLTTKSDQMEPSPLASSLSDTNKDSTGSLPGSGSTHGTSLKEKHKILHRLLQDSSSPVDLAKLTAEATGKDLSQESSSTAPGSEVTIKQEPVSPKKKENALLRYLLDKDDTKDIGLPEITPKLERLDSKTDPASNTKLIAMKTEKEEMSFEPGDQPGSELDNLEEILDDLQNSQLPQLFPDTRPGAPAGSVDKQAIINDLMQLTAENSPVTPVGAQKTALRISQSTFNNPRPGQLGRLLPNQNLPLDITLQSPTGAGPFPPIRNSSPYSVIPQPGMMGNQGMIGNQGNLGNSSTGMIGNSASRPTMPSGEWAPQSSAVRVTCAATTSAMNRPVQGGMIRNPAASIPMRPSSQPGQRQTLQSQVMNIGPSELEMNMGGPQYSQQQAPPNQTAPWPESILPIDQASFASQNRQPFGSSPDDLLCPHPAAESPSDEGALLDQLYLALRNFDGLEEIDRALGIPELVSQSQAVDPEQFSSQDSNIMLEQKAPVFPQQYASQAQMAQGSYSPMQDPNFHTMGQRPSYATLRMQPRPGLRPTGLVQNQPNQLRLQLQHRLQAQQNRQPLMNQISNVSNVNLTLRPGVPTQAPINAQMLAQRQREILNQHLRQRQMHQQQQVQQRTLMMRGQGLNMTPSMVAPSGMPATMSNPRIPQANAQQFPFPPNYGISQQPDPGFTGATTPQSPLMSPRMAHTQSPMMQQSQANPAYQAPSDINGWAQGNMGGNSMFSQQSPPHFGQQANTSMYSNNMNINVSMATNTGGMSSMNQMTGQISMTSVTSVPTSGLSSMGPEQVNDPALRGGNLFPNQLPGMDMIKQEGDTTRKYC
Chain of Peroxisome proliferator-activated receptor gamma/Nuclear receptor coactivator 3 (P37231 whole entry): as the sequence (P37231 whole entry) above
Chain of Peroxisome proliferator-activated receptor gamma/Nuclear receptor coactivator 3 (Q9Y6Q9 whole entry, further chain): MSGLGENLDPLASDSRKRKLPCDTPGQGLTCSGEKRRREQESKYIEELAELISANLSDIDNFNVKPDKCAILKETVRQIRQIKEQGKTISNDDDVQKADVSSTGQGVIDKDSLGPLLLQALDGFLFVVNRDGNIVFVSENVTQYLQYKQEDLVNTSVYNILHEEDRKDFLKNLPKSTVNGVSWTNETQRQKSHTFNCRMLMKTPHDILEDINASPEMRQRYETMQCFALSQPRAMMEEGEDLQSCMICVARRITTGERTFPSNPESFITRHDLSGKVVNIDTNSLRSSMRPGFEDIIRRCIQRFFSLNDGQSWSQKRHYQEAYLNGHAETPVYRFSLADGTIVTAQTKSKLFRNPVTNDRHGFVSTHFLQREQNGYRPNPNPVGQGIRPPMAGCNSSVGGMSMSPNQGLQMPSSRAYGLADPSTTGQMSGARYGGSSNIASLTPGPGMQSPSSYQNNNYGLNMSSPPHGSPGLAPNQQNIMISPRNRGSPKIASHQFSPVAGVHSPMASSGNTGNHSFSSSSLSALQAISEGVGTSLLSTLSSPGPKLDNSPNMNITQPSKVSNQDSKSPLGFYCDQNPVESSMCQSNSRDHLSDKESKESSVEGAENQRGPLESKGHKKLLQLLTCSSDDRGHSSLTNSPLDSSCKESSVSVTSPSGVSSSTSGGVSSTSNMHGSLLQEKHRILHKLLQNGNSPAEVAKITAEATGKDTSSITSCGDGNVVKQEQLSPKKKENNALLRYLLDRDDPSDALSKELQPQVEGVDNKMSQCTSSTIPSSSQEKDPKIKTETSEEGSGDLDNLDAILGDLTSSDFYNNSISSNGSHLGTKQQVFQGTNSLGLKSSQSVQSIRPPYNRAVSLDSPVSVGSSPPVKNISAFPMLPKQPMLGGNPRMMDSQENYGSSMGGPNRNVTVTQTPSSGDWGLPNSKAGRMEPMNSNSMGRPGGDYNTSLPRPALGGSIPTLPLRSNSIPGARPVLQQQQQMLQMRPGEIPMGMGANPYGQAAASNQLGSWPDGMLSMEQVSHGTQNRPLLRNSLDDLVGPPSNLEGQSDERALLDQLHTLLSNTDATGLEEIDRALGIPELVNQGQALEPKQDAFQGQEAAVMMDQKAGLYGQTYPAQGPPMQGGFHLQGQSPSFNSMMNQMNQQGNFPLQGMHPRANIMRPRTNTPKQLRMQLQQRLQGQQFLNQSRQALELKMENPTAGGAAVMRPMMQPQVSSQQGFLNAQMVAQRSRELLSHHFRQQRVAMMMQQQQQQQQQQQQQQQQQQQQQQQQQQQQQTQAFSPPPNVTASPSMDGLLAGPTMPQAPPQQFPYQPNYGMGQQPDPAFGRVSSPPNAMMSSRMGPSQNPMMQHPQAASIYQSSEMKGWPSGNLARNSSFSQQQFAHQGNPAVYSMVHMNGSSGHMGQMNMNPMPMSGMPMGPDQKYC
Chain of Eukaryotic translation initiation factor 4E (P63073 whole entry): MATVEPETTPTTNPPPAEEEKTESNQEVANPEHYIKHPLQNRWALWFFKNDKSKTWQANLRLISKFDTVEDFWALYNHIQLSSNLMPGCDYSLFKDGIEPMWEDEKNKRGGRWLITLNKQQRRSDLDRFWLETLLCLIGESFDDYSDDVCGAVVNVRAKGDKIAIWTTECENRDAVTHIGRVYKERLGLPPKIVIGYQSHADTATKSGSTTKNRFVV
Chain of Induced myeloid leukemia cell differentiation protein Mcl-1 (Q07820 whole entry): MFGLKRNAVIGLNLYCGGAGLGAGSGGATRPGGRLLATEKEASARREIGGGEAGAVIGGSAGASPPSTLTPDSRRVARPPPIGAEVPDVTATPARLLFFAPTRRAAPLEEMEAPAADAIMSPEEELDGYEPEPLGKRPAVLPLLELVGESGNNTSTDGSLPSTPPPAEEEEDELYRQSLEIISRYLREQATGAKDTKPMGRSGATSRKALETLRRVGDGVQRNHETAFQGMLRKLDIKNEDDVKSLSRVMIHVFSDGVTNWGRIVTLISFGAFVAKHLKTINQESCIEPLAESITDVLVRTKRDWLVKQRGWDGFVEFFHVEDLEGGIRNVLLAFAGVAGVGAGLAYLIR
Chain of DNA dC->dU-editing enzyme APOBEC-3A (P31941 whole entry): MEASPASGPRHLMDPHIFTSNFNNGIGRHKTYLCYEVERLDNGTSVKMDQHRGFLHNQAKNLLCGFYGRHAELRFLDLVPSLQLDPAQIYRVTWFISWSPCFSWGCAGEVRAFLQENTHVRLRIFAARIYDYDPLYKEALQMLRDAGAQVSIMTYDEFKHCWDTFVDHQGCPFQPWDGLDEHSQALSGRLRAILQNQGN
Chain of DNA dC->dU-editing enzyme APOBEC-3G (Q9HC16 whole entry): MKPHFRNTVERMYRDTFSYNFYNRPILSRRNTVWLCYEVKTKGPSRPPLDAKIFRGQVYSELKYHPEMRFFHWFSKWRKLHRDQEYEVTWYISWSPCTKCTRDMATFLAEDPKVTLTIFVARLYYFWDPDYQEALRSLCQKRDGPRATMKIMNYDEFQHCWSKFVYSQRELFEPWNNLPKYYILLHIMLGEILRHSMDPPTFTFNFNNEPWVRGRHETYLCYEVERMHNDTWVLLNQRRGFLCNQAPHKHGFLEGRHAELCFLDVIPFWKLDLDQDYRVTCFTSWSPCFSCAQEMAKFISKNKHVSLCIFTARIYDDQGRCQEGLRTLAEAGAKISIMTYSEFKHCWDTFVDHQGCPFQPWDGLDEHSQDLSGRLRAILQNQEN

Compound: CCc1nn(CC(=O)NC(C)CCc2ccccc2)c(=O)c2cc3cc(F)ccc3n12 (stereo not drawn)
IC50 (SUMO-activating enzyme): 45.3 µM (active)

Compound: CCc1cccc(CC)c1N(COC)C(=O)Cn1c(CO)nc2ccccc21
IC50 (Coagulation factor XII): > 50 µM (inactive)

Compound: COC(=O)Cn1cc(/C=C/c2cc[n+](C)cc2)c2ccccc21
IC50 [6]: 3.58 µM (active) | EC50 [7]: 8.34 µM (active) | IC50 [8]: 3.05 µM (active)

Compound: COc1ccccc1N1CCN(C(=O)c2cc3c(s2)CCC3)CC1
IC50 (Bcl-2-like protein 10): 36.6 µM (active) | IC50 (Estrogen receptor): 5.19 µM (active)

Second part, the compound after the results:

EC50 [1]: > 79.4 µM (not active) | EC50 [2]: > 79.4 µM (inactive) | EC50 [3]: > 79.4 µM (not active)
Compound: O=C(Nc1ccc(S(=O)(=O)Nc2ncccn2)cc1)c1ccc(Br)s1

IC50 [4]: 35.9 µM (not active) | IC50 [5]: > 64 µM (inactive)
Compound: COc1ccc(NC(C)C(=O)Nc2ccc(C#N)cc2)cc1Cl (stereo not drawn)

IC50 (Bcl-2-like protein 10): > 12.5 µM (inactive)
Compound: COC(=O)CNc1c(-c2ccccn2)nc2ccc(Br)cn12
